Data taken from patent US9776992B2, “1-oxo-1,2-dihydroisoquinolin-7-yl-(5-substituted-thiophen-2-yl)-sulfonamide compounds, formulations containing those compounds, and their use as AICARFT inhibitors in the treatment of cancers” (Eli Lilly and Company, priority 2014, dated 2017).
pIC50: −log10 of the molar value.

How the values were obtained:
[1] = system: large cell lung cancer NCI-H460; experiment: Low folate in vitro proliferation assay, NCI-H460; type: cell-based; details: Homo sapiens, 168 h; NCI-H460, low folate media, 7 days
From the text: (§1) Allow cells to attach overnight. […] Final concentration of compounds will be 1×. […] Dose cells with compounds of interest for 7 days. […] Determine % inhibition for each sample (see Table 18).

[2] = system: human lung carcinoma NCI-H460 mouse xenograft; experiment: Antitumor efficacy in NCI-H460 mouse xenograft tumor model; type: in vivo; details: for % T/C: NCI-H460 xenograft, no folic acid, Day 20, Delta T/C, * = P<0.05
Procedure: In vivo studies are performed using female athymic nude mice (Harlan) with a bodyweight of 23-28 g at first measurement. Upon receipt and throughout the study, the animals are housed 5 animals per cage in appropriately sized solid-bottom cages with contact bedding. The animal room is maintained on a 12-hour light/dark cycle. Animals are acclimated for 14 days prior to implantation of the NCI-H460 or HCT-116 cells on low folate diet (Teklad 130451) ad libitum and autoclaved tap water is provided ad libitum. The HCT-116 and NCI-H460 cell line are obtained from American Type Culture Collection (ATCC) and is cultured following ATCC instructions. Cells used for implantation are harvested during log phase growth and suspended in serum-free media. The suspended cells are then diluted 1:1 with BD Matrigel Matrix (ref 354234). Cells are injected in the right flank with 5.0E+06 cells (0.2 mL cell/Matrigel suspension). Tumors are monitored beginning day 8 post implant. Animals are redistributed into groups with 5-6 animals per group utilizing proprietary randomization software when average tumor volume reaches 200 mm^3. Groups 1-12 are maintained on a low folate diet (Teklad 130451) and folic acid (Sigma F8798 Lot #SLBH0909V) administration at doses listed in the Table 19 began 28 hours prior to dose initiation and 4 hours prior to each dose. […] Tumor volume and body weight are measured 2× a week. Tumor volume is determined by caliper measurements (mm) and using the formula for an ellipsoid sphere: tumor volume (mm^3)=length×width^2/2, where length and width refer to the larger and smaller perpendicular dimensions collected at each measurement. The animal behavior and animal health are monitored daily during dosing period.
The statistical analysis of the tumor volume data begins with a data transformation to a log scale to equalize variance across time and treatment groups. The log volume data are analyzed with a two-way repeated measures analysis of variance by time and treatment using the MIXED procedures in SAS software (Version 9.3). […]

[3] = system: AICARFT; experiment: AICARFT in vivo target inhibition (IVTI) assay in mouse plasma (AICAr)
Procedure: In vivo studies are performed using female athymic nude mice (Harlan) with a bodyweight of 23-28 g at first measurement. Upon receipt and throughout the study, the animals are housed 5 animals per cage in appropriately sized solid-bottom cages with contact bedding. The animal room is maintained on a 12-hour light/dark cycle. Animals are acclimated for 14 days prior to implantation of the NCI-H460 or HCT-116 cells on low folate diet (Teklad 130451) ad libitum and autoclaved tap water is provided ad libitum. The HCT-116 and NCI-H460 cell line are obtained from American Type Culture Collection (ATCC) and is cultured following ATCC instructions. Cells used for implantation are harvested during log phase growth and suspended in serum-free media. The suspended cells are then diluted 1:1 with BD Matrigel Matrix (ref 354234). Cells are injected in the right flank with 5.0E+06 cells (0.2 mL cell/Matrigel suspension). Tumors are monitored beginning day 8 post implant. Animals are redistributed into groups with 5-6 animals per group utilizing proprietary randomization software when average tumor volume reaches 200 mm^3. Groups 1-12 are maintained on a low folate diet (Teklad 130451) and folic acid (Sigma F8798 Lot #SLBH0909V) administration at doses listed in the Table 19 began 28 hours prior to dose initiation and 4 hours prior to each dose. Folic acid is formulated weekly in PBS and dosed via oral gavage at 0.2 mL. Groups 13-16 are placed on standard chow (Teklad 2920X) at randomization. The compound is formulated weekly in 20% HPBCD in Phosphate buffer pH 8 with one molar equivalent NaOH added. The formulated compound is administered at the doses and schedules indicated in Table 19 by oral gavage (0.2 mL). The vehicle is also given QD as the control arm of the study. Tumor volume and body weight are measured 2× a week. Tumor volume is determined by caliper measurements (mm) and using the formula for an ellipsoid sphere: tumor volume (mm^3)=length×width^2/2, where length and width refer to the larger and smaller perpendicular dimensions collected at each measurement. The animal behavior and animal health are monitored daily during dosing period.
The in vivo effects of AICARFT inhibition on the circulating concentration of AICAr is determined by liquid chromatography-mass spectrometry (LC-MS). Standard curves containing AICAr at concentrations of 1 ng/mL-2000 ng/mL are prepared in 40 mM ammonium acetate, pH 4. Plasma samples (75 μL) or standards (75 μL) are combined with 300 μL of an internal standard solution containing 13C5-AICAr (20 ng/mL) and formic acid (1%) in ACN. The samples are vortex mixed for 5 minutes and passed through a Phenomenex Phree 96-well phospholipid removal SPE plate. The eluents are collected in a 96-well plate and dried under heated nitrogen at 50° C. Each sample is reconstituted in 50 μL of 40 mM ammonium acetate, pH 4. The plates are sealed and vortexed for 5 minutes prior to analysis. The LC-MS method utilized a Shimadzu Prominence 20A HPLC system connected to an AB Sciex 5500™ or an AB Sciex 6500™ triple quadrupole mass spectrometer running Analyst® software. Extracted samples are separated using two Thermo Hypercarb™ Javelin guard columns (2.1×20 mm, 5 μm) connected in series with an injection volume of 15 μL and a flow rate of 1 mL/minute. Mobile phase A is a 95:5 mixture of 50 mM ammonium formate, pH 4 and ACN. Mobile phase B is a 70:30 mixture of ACN and MeOH spiked with 0.3% formic acid and 2% concentrated ammonium hydroxide solution (v/v). For mouse plasma samples the following gradient is used: 0 minutes, 0% B; 0.25 minutes, 0% B; 2.00 minutes, 25% B; 2.01 minutes, 95% B; 3.50 minutes, 95% B; 3.51 minutes, 0% B; 4.50 minutes, stop. For dog plasma samples the following gradient is used to remove endogenous interferences: 0 minutes, 0% B; 0.25 minutes, 0% B; 5.99 minutes, 20% B; 6.00 minutes, 95% B; 8.00 minutes, 95% B; 8.01 minutes, 0% B; 10.00 minutes, stop. […]

[4] = system: panel of 46 cancer cell lines; experiment: Low folate in vitro proliferation assay, cancer cell line panel (Alamar Blue); details: media conditions with folate levels similar to human plasma; summary of Table 18
Procedure: Supplement 500 mL Gibco folate free RPMI media (Gibco #27016-021) with 1 M Hepes (5 mL), 100 mM Na pyruvate (5 mL) and 0.5 g/mL glucose (2.5 mL) to match high folate ATCC RPMI media (ATCC #30-2001). To make complete media, both regular and folate free RPMI medias are supplemented with 10% FBS. The addition of FBS to folate free media adds low levels of folate and is now considered to be low folate media.
Transfer cells growing in high folate RPMI media (ATCC #30-2001)+10% FBS (Hyclone #SH30070.03) to low folate RPMI media and folate starve for 7 days. Wash cells grown in high folate media with PBS, trypsinize, and resuspend in low folate media. Grow cells in low folate media for 7 days making sure to seed tissue culture flasks at a density that will not exceed 80% confluence after 7 days. Wash cells in PBS, trypsinize, and resuspend in low folate media and count cells. Seed 96 well poly D lysine plate (Corning #354640) at 3000 cells/well in 100 μl low folate media. Allow cells to attach overnight. Prepare 10 mM DMSO stocks of compounds to be tested in proliferation assay. Determine concentrations to be tested and dilute compounds to 2× final concentration in low folate media. Calculate % DMSO of this solution and use this value as diluent. […] Read plates on the Envision plate reader (Perkin Elmer), or other fluorescent plate reader, with excitation at 570 nm and emission at 585 nm. […]

[5] = system: colorectal carcinoma HCT-116; experiment: Low folate in vitro proliferation assay, HCT-116; type: cell-based; details: Homo sapiens, 168 h; HCT-116, low folate media, 7 days
From the text: as §1

[6] = molecular target: AICARFT (Homo sapiens, UniProt P31939); experiment: AICARFT in vivo target inhibition (IVTI) assay, tumor xenografts (ZMP); design: from tissue; host or cells: HCT-116 and NCI-H460 tumour xenografts in female athymic nude mice; species or system mouse
Sequence of AICARFT (Homo sapiens, UniProt P31939) (P31939 whole entry): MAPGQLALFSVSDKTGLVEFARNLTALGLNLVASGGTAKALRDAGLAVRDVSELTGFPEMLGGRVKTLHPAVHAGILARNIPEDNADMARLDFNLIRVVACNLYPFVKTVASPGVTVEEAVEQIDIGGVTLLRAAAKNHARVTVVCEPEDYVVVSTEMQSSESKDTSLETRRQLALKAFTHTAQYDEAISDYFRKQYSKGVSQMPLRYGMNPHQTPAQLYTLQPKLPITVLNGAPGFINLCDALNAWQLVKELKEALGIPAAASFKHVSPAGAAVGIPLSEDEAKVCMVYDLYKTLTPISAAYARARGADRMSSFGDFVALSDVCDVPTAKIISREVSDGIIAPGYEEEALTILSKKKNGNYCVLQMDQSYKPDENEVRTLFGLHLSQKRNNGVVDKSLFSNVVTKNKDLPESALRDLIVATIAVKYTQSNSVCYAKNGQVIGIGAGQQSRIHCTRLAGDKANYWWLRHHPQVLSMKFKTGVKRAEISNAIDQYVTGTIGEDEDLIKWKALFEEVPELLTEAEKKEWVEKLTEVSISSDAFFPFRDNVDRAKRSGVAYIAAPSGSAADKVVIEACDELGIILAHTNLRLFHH
Procedure: The in vivo effects of AICARFT inhibition on the concentrations of pathway-related analytes are determined by liquid chromatography-mass spectrometry (LC-MS) analysis of tumor xenografts. Tumor xenograft samples on dry ice are weighed on an analytical balance, transferred to 2 mL Eppendorf Safe-Lock Tube™, and placed on dry ice. An internal standard solution containing 13C5-ZMP (1000 ng/mL), 13C5-AICAr (500 ng/mL), ascorbic acid (0.1%), and formic acid (0.1%) in MeOH/DCM (80:20) is prepared and stored at 20° C. For every mg of tissue in the sample tube, 10 L of internal standard solution is added. Standard curves containing ZMP, dUMP, AICAr at concentrations of 7.6-50,000 ng/mL are prepared separately in the internal standard solution.
One 5 mm steel bead (Qiagen) is added to each sample tube and the tubes are placed on wet ice for 15 minutes. Samples are homogenized on a Qiagen TissueLyser II for 5 minutes at 15 Hz, and then centrifuged on an Eppendorf 5430R microcentrifuge for 10 minutes at 13,000 rpm and 4° C. Aliquots of each supernatant (200 μL) are removed and placed into a deep 96-well plate. Aliquots (200 μL) of each standard curve solution are also placed in a deep 96-well plate. A Beckman Biomek FX liquid handler added DCM (600 μL) and 0.1% ascorbic acid solution (200 μL) to each well. The plate is sealed, vortexed for 5 minutes, and centrifuged for 5 minutes at 4,000 rpm and 4° C. on an Eppendorf 5810R centrifuge. Aliquots (75 μL) of the top layer are transferred to a clean 96-well plate, and an additional 75 μL of 40 mM ammonium acetate, pH 4 is added to each well. The plates are sealed prior to analysis. The LC-MS method utilized a Shimadzu Prominence 20A HPLC system connected to an AB Sciex 5500™ or an AB Sciex 6500™ triple quadrupole mass spectrometer running Analyst® software.

In the case of O=c1[nH]ccc2cc(F)c(NS(=O)(=O)c3ccc(N4CC[C@@H](O)C4)s3)cc12 [Example 1, N-(6-Fluoro-1-oxo-1,2-dihydroisoquinolin-7-yl)-5-[(3R)-3-hydroxypyrrolidin-1-yl]thiophene-2-sulfonamide], the pIC50 [1] was 7.70, the “in vivo anticancer activity (in words)” value ([2]; NCI-H460 xenograft tumors, QD continuously for 2 weeks) was “demonstrates in vivo anticancer activity” and the “% T/C” value ([2]; Group 14, standard chow, 10 mg/kg QD × 13, orally) was 113%. For the same compound, the “% T/C” value ([2]; Group 15, standard chow, 30 mg/kg QD × 13, orally) was 42* %, the “Mean Plasma AICAr” value ([3]; HCT-116 xenograft mice, Group 6, low folate diet, folic acid 0.75 mg/kg (QD × 15, orally), 10 mg/kg QD × 14, orally, Day 23) was 88 nM and the “Mean Plasma AICAr” value ([3]; HCT-116 xenograft mice, Group 7, low folate diet, folic acid 0.75 mg/kg (QD × 15, orally), 30 mg/kg QD × 14, orally, Day 23) was 181 nM. The “Mean Plasma AICAr” value ([3]; HCT-116 xenograft mice, Group 14, standard chow, no folic acid, 10 mg/kg QD × 14, orally, Day 23) was 44 nM, the “Mean Plasma AICAr” value ([3]; HCT-116 xenograft mice, Group 15, standard chow, no folic acid, 30 mg/kg QD × 14, orally, Day 23) was 154 nM and the “Mean Plasma AICAr” value ([3]; NCI-H460 xenograft mice, Group 14, standard chow, no folic acid, 10 mg/kg QD × 13, orally, Day 20) was 368 nM. For the same compound, the “Mean Plasma AICAr” value ([3]; NCI-H460 xenograft mice, Group 15, standard chow, no folic acid, 30 mg/kg QD × 13, orally, Day 20) was 1400 nM, the “inhibition of proliferation of cancer cells (in words)” value [4] was “inhibits proliferation of cancer cells” and the pIC50 [5] was 8.52. The “Mean tumor ZMP” value ([6]; HCT-116 xenograft, Group 6, low folate diet, folic acid 0.75 mg/kg (QD × 15, orally), 10 mg/kg QD × 14, orally, Day 23) was 20 µM, the “Mean tumor ZMP” value ([6]; HCT-116 xenograft, Group 7, low folate diet, folic acid 0.75 mg/kg (QD × 15, orally), 30 mg/kg QD × 14, orally, Day 23) was 35 µM and the “Mean tumor ZMP” value ([6]; HCT-116 xenograft, Group 14, standard chow, no folic acid, 10 mg/kg QD × 14, orally, Day 23) was 7.0 µM. For the same compound, the “Mean tumor ZMP” value ([6]; HCT-116 xenograft, Group 15, standard chow, no folic acid, 30 mg/kg QD × 14, orally, Day 23) was 26 µM, the “Mean tumor ZMP” value ([6]; NCI-H460 xenograft, Group 14, standard chow, no folic acid, 10 mg/kg QD × 13, orally, Day 20) was 3.7 µM and the “Mean tumor ZMP” value ([6]; NCI-H460 xenograft, Group 15, standard chow, no folic acid, 30 mg/kg QD × 13, orally, Day 20) was 66 µM.
